Experimental data reported in US20020137929A1, “1 - (3-heterocyclylphenyl) isothiourea, -isourea, -guanidine and -amidine herbicidal agents” (Intellectual Property Department, BASF Aktiengesellschaft, priority 1998, published 2002).

Legend:
[1] = test system: TRZAWR (Wheat, Winter, cv Riband); test: Postemergence herbicidal evaluation; assay type: in vivo, Triticum aestivum; conditions: postemergence
Summary of the method: (§1)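 Visual 0-9 injury score (stand, vigor, malformation, size, chlorosis, appearance vs untreated) taken four to five weeks post-spray, averaged across repeat tests. Test plants about two weeks old; foliar spray of acetone/water (1:1) with 0.5% surfactant delivering ~0.0156-0.500 kg active/ha.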

CASOB (Sicklepod) = test: Postemergence herbicidal evaluation; assay type: in vivo, Cassia obtusifolia; conditions: postemergence
Summary of the method: as §1

SETVI (Foxtail, Green) = test: Preemergence herbicidal evaluation; assay type: in vivo, Setaria viridis; conditions: rated 4-5 weeks after treatment, rating scale 0-9
Summary of the method: (§2)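 Seeds were planted in potting soil in cups, then sprayed preemergence with the test compound in aqueous acetone at about 0.0156 to 0.500 kg per hectare. Cups were kept under greenhouse conditions and visually rated 4–5 weeks after treatment on a 0–9 scale against an untreated control.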

[2] = test system: SAGPY (Arrowhead (Pygmaea)); test: Preemergence weed control under flooded paddy conditions; assay type: in vivo, Sagittaria pygmaea; conditions: rated 3-4 weeks after treatment
Summary of the method: (§3)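 Visual injury scored 0-9 against control three to four weeks post-treatment, greenhouse-grown. Application: acetone/water (50/50) solutions dosed directly into flood water (1.5-3 cm over silt loam, planted top 0.5 cm), roughly 0.0313 to 0.500 kg/ha active ingredient.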

[3] = test system: ECHORC (Watergrass (Calif.)); test: as above; assay type: in vivo, Echinochloa oryzoides; conditions: rated 3-4 weeks after treatment
Summary of the method: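 Silt loam, seeds in top 0.5 cm; flood held 1.5-3 cm; test cpd as acetone/water 50/50 into flood water, ~0.0313-0.500 kg/ha a.i.; greenhouse 3-4 wk; visual 0-9 score vs control.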

CYPSE (Flatsedge) = test: as above; assay type: in vivo, Cyperus serotinus; conditions: rated 3-4 weeks after treatment
Summary of the method: as §3

GALAP (Galium) [4] = test: Preemergence herbicidal evaluation; assay type: in vivo, Galium aparine; conditions: rated 4-5 weeks after treatment, rating scale 0-9
Summary of the method: as §2

AMBEL (Ragweed, Common) = test: Postemergence herbicidal evaluation; assay type: in vivo, Ambrosia artemisifolia; conditions: postemergence
Summary of the method: as §1

GALAP (Galium) [5] = test: Postemergence herbicidal evaluation; assay type: in vivo, Galium aparine; conditions: postemergence
Summary of the method: as §1

ORYSAT (Rice, Tebonnet) = test: Preemergence herbicidal evaluation; assay type: in vivo, Oryza sativa, (L.) Tebonnet; conditions: rated 4-5 weeks after treatment, rating scale 0-9
Summary of the method: as §2

MOOVA (Monochoria) = test: Preemergence weed control under flooded paddy conditions; assay type: in vivo, Monochoria vaginalis; conditions: rated 3-4 weeks after treatment
Summary of the method: as §3

[6] = test system: GLXMAW (Soybean, Williams); test: Postemergence herbicidal evaluation; assay type: in vivo, Glycine max, (L.) Merr. cv Williams; conditions: postemergence
Summary of the method: as §1

Cn1c(C(F)(F)F)cc(=O)n(-c2cc(N=C3SCC(=O)N3Cc3ccncc3)c(Cl)cc2F)c1=O [Compound 133, 3-{4-Chloro-2-fluoro-5-{[4-oxo-3-(4-pyridylmethyl)-2-thiazolidinylidene]amino}phenyl}-1-methyl-6-(trifluoromethyl)-2,4(1H,3H)-pyrimidinedione]
Herbicidal rating TRZAWR ([1]; rate 0.0156 kg/ha): 2.5 | Herbicidal rating TRZAWR ([1]; rate 0.0313 kg/ha): 3.0 | Herbicidal rating TRZAWR ([1]; rate 0.0625 kg/ha): 3.5 | Herbicidal rating CASOB (CASOB (Sicklepod); rate 0.0156 kg/ha): 0.0 | Herbicidal rating CASOB (CASOB (Sicklepod); rate 0.0313 kg/ha): 1.0 | Herbicidal rating CASOB (CASOB (Sicklepod); rate 0.0625 kg/ha): 3.0 | Preemergence herbicidal rating SETVI (SETVI (Foxtail, Green); rate 0.0313 kg/ha): 0.0 | Preemergence herbicidal rating SETVI (SETVI (Foxtail, Green); rate 0.0625 kg/ha): 0.0 | Preemergence herbicidal rating SETVI (SETVI (Foxtail, Green); rate 0.1250 kg/ha): 0.0 | Preemergence herbicidal rating SETVI (SETVI (Foxtail, Green); rate 0.2500 kg/ha): 0.0 | herbicidal effect rating, SAGPY ([2]; 0.0313 kg/ha): 0.0 | herbicidal effect rating, SAGPY ([2]; 0.0625 kg/ha): 3.0 | herbicidal effect rating, SAGPY ([2]; 0.1250 kg/ha): 3.0 | herbicidal effect rating, SAGPY ([2]; 0.2500 kg/ha): 3.0 | herbicidal effect rating, ECHORC ([3]; 0.0313 kg/ha): 6.0 | herbicidal effect rating, ECHORC ([3]; 0.0625 kg/ha): 6.0 | herbicidal effect rating, ECHORC ([3]; 0.1250 kg/ha): 9.0 | herbicidal effect rating, ECHORC ([3]; 0.2500 kg/ha): 9.0 | herbicidal effect rating, CYPSE (CYPSE (Flatsedge); 0.0313 kg/ha): 0.0 | herbicidal effect rating, CYPSE (CYPSE (Flatsedge); 0.0625 kg/ha): 0.0 | herbicidal effect rating, CYPSE (CYPSE (Flatsedge); 0.1250 kg/ha): 0.0 | herbicidal effect rating, CYPSE (CYPSE (Flatsedge); 0.2500 kg/ha): 1.0 | Preemergence herbicidal rating GALAP (GALAP (Galium) [4]; rate 0.0313 kg/ha): 0.0 | Preemergence herbicidal rating GALAP (GALAP (Galium) [4]; rate 0.0625 kg/ha): 0.0 | Preemergence herbicidal rating GALAP (GALAP (Galium) [4]; rate 0.1250 kg/ha): 0.0 | Preemergence herbicidal rating GALAP (GALAP (Galium) [4]; rate 0.2500 kg/ha): 0.0 | Herbicidal rating AMBEL (AMBEL (Ragweed, Common); rate 0.0156 kg/ha): 9.0 | Herbicidal rating AMBEL (AMBEL (Ragweed, Common); rate 0.0313 kg/ha): 6.0 | Herbicidal rating AMBEL (AMBEL (Ragweed, Common); rate 0.0625 kg/ha): 9.0 | Herbicidal rating GALAP (GALAP (Galium) [5]; rate 0.0156 kg/ha): 0.0 | Herbicidal rating GALAP (GALAP (Galium) [5]; rate 0.0313 kg/ha): 2.0 | Herbicidal rating GALAP (GALAP (Galium) [5]; rate 0.0625 kg/ha): 3.0 | Preemergence herbicidal rating ORYSAT (ORYSAT (Rice, Tebonnet); rate 0.0313 kg/ha): 0.0 | Preemergence herbicidal rating ORYSAT (ORYSAT (Rice, Tebonnet); rate 0.0625 kg/ha): 0.0 | Preemergence herbicidal rating ORYSAT (ORYSAT (Rice, Tebonnet); rate 0.1250 kg/ha): 0.0 | Preemergence herbicidal rating ORYSAT (ORYSAT (Rice, Tebonnet); rate 0.2500 kg/ha): 0.0 | herbicidal effect rating, MOOVA (MOOVA (Monochoria); 0.0313 kg/ha): 3.0 | herbicidal effect rating, MOOVA (MOOVA (Monochoria); 0.0625 kg/ha): 4.0 | herbicidal effect rating, MOOVA (MOOVA (Monochoria); 0.1250 kg/ha): 4.0 | herbicidal effect rating, MOOVA (MOOVA (Monochoria); 0.2500 kg/ha): 6.0 | Herbicidal rating GLXMAW ([6]; rate 0.0156 kg/ha): 5.0 | Herbicidal rating GLXMAW ([6]; rate 0.0313 kg/ha): 5.0 | Herbicidal rating GLXMAW ([6]; rate 0.0625 kg/ha): 5.0

Cn1c(C(F)(F)F)cc(=O)n(-c2cc(N=C3SCC(=O)N3Cc3cccc(Cl)c3)c(Cl)cc2F)c1=O [Compound 136, 3-{4-Chloro-5-{[3-(m-chlorobenzyl)-4-oxo-2-thiazolidinylidene]amino}-2-fluorophenyl}-1-methyl-6-(trifluoromethyl)-2,4(1H,3H)-pyrimidinedione]
Herbicidal rating TRZAWR ([1]; rate 0.0156 kg/ha): 2.5 | Herbicidal rating TRZAWR ([1]; rate 0.0313 kg/ha): 3.0 | Herbicidal rating TRZAWR ([1]; rate 0.0625 kg/ha): 3.0 | Herbicidal rating CASOB (CASOB (Sicklepod); rate 0.0156 kg/ha): 1.0 | Herbicidal rating CASOB (CASOB (Sicklepod); rate 0.0313 kg/ha): 4.0 | Herbicidal rating CASOB (CASOB (Sicklepod); rate 0.0625 kg/ha): 7.0 | Preemergence herbicidal rating SETVI (SETVI (Foxtail, Green); rate 0.0156 kg/ha): 0.0 | Preemergence herbicidal rating SETVI (SETVI (Foxtail, Green); rate 0.0313 kg/ha): 0.0 | Preemergence herbicidal rating SETVI (SETVI (Foxtail, Green); rate 0.0625 kg/ha): 2.0 | Preemergence herbicidal rating SETVI (SETVI (Foxtail, Green); rate 0.1250 kg/ha): 4.0 | Preemergence herbicidal rating SETVI (SETVI (Foxtail, Green); rate 0.2500 kg/ha): 7.0 | herbicidal effect rating, SAGPY ([2]; 0.0313 kg/ha): 0.0 | herbicidal effect rating, SAGPY ([2]; 0.0625 kg/ha): 0.0 | herbicidal effect rating, SAGPY ([2]; 0.1250 kg/ha): 3.0 | herbicidal effect rating, SAGPY ([2]; 0.2500 kg/ha): 3.0 | herbicidal effect rating, ECHORC ([3]; 0.0313 kg/ha): 7.0 | herbicidal effect rating, ECHORC ([3]; 0.0625 kg/ha): 7.0 | herbicidal effect rating, ECHORC ([3]; 0.1250 kg/ha): 7.0 | herbicidal effect rating, ECHORC ([3]; 0.2500 kg/ha): 9.0 | herbicidal effect rating, CYPSE (CYPSE (Flatsedge); 0.0313 kg/ha): 0.0 | herbicidal effect rating, CYPSE (CYPSE (Flatsedge); 0.0625 kg/ha): 0.0 | herbicidal effect rating, CYPSE (CYPSE (Flatsedge); 0.1250 kg/ha): 0.0 | herbicidal effect rating, CYPSE (CYPSE (Flatsedge); 0.2500 kg/ha): 0.0 | Preemergence herbicidal rating GALAP (GALAP (Galium) [4]; rate 0.0156 kg/ha): 0.0 | Preemergence herbicidal rating GALAP (GALAP (Galium) [4]; rate 0.0313 kg/ha): 0.0 | Preemergence herbicidal rating GALAP (GALAP (Galium) [4]; rate 0.0625 kg/ha): 1.0 | Preemergence herbicidal rating GALAP (GALAP (Galium) [4]; rate 0.1250 kg/ha): 2.0 | Preemergence herbicidal rating GALAP (GALAP (Galium) [4]; rate 0.2500 kg/ha): 3.0 | Herbicidal rating AMBEL (AMBEL (Ragweed, Common); rate 0.0156 kg/ha): 9.0 | Herbicidal rating AMBEL (AMBEL (Ragweed, Common); rate 0.0313 kg/ha): 9.0 | Herbicidal rating AMBEL (AMBEL (Ragweed, Common); rate 0.0625 kg/ha): 9.0 | Herbicidal rating GALAP (GALAP (Galium) [5]; rate 0.0156 kg/ha): 1.0 | Herbicidal rating GALAP (GALAP (Galium) [5]; rate 0.0313 kg/ha): 2.0 | Herbicidal rating GALAP (GALAP (Galium) [5]; rate 0.0625 kg/ha): 3.0 | Preemergence herbicidal rating ORYSAT (ORYSAT (Rice, Tebonnet); rate 0.0156 kg/ha): 0.0 | Preemergence herbicidal rating ORYSAT (ORYSAT (Rice, Tebonnet); rate 0.0313 kg/ha): 0.0 | Preemergence herbicidal rating ORYSAT (ORYSAT (Rice, Tebonnet); rate 0.0625 kg/ha): 0.0 | Preemergence herbicidal rating ORYSAT (ORYSAT (Rice, Tebonnet); rate 0.1250 kg/ha): 1.0 | Preemergence herbicidal rating ORYSAT (ORYSAT (Rice, Tebonnet); rate 0.2500 kg/ha): 1.0 | herbicidal effect rating, MOOVA (MOOVA (Monochoria); 0.0313 kg/ha): 3.0 | herbicidal effect rating, MOOVA (MOOVA (Monochoria); 0.0625 kg/ha): 4.0 | herbicidal effect rating, MOOVA (MOOVA (Monochoria); 0.1250 kg/ha): 9.0 | herbicidal effect rating, MOOVA (MOOVA (Monochoria); 0.2500 kg/ha): 9.0 | Herbicidal rating GLXMAW ([6]; rate 0.0156 kg/ha): 4.5 | Herbicidal rating GLXMAW ([6]; rate 0.0313 kg/ha): 5.5 | Herbicidal rating GLXMAW ([6]; rate 0.0625 kg/ha): 5.5
